{"source": "patent US20060110790A1", "about": "“Expression system for large functional proteins” (priority 2002, published 2006)", "key": {"ABCR": {"molecular_target": "T1, ABCR (Homo sapiens, UniProt P78363)", "T1 construct": "Membranes from transfected cells expressing either full-length ABCR (lanes 1 & 2) or co-expressing the N and C halves; expressed in transfected cells; host or cells: transfected cells (COS-1 or EBNA293)", "T1 sequence (P78363 whole entry)": "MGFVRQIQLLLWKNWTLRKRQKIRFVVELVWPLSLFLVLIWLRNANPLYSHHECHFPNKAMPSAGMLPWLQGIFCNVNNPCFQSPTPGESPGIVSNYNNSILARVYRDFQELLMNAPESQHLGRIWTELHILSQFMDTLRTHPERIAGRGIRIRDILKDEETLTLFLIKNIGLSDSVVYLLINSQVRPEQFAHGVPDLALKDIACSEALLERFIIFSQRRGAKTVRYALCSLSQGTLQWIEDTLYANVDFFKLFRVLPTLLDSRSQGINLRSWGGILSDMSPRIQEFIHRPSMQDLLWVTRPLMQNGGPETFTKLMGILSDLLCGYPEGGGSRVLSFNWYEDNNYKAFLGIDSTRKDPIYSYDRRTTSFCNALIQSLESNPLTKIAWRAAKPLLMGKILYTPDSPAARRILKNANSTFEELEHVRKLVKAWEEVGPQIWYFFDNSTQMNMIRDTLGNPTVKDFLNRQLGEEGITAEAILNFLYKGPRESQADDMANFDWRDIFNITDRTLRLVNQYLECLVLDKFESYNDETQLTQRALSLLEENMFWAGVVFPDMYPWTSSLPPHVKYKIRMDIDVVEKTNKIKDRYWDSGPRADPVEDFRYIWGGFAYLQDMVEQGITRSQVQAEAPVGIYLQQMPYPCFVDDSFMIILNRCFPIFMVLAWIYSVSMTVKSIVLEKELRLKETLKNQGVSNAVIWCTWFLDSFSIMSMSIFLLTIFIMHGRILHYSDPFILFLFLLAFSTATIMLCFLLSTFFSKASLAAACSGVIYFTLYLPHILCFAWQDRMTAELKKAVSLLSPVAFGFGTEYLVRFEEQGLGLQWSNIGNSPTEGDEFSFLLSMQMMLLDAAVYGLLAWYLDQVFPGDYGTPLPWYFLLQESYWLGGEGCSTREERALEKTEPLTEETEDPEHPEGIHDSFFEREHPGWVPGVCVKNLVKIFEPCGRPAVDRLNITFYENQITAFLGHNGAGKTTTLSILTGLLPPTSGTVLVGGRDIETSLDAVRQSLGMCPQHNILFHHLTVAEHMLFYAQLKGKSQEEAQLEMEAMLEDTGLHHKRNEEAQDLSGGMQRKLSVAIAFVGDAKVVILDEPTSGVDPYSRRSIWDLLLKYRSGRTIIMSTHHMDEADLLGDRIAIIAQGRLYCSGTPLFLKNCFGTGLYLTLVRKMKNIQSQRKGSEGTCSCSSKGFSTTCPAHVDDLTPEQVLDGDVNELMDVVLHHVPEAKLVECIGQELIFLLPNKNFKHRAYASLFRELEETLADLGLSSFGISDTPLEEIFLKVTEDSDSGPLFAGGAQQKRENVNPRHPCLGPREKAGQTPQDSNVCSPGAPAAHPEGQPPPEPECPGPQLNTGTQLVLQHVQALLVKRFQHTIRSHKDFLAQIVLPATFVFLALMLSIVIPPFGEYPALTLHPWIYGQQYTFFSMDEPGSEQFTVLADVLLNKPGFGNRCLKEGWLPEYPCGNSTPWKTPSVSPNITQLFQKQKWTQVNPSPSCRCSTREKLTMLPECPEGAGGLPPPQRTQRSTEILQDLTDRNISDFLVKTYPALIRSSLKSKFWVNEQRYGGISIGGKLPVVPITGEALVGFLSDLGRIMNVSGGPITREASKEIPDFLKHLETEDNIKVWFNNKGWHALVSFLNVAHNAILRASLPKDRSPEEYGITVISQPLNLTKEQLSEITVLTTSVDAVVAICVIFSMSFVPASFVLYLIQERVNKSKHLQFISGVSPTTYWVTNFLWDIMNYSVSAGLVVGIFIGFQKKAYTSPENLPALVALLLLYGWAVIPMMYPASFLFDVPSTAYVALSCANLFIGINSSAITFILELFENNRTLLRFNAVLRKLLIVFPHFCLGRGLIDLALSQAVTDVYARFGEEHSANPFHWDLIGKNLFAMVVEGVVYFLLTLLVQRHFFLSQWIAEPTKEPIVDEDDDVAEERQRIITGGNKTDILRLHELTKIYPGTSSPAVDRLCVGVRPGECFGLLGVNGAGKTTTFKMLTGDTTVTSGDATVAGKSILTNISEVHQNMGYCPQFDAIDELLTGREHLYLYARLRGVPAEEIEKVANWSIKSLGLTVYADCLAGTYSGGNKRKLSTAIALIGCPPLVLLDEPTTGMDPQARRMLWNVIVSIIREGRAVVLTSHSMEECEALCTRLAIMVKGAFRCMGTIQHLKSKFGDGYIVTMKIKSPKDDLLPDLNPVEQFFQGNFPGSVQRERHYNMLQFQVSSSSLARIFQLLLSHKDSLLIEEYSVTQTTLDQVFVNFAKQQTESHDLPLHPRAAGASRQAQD", "experiment": "8-azido-ATP/ADP nucleotide trapping in membranes from transfected cells", "assay_type": "binding", "conditions": "50 μM all-trans retinal, 5 μM 8-azido-[α-32P]ATP, 37° C.", "procedure": "FIG. 7. Nucleotide trapping by ABCR and co-expressed N and C halves. A. Effect of orthovanadate on nucleotide trapping. Membranes from transfected cells were incubated with 5 μM 8-azido-[α-^32P]ATP at 37° C., washed, and tightly bound nucleotides were UV crosslinked. Lane 1, full-length ABCR; lane 2, full-length ABCR incubated with 800 μM orthovanadate; lane 3, co-expressed N and C halves; lane 4, co-expressed N- and C-halves incubated with 800 μM orthovanadate. B. Effect of temperature and retinal on nucleotide trapping. Lane 1, full-length ABCR labeled at 0° C.; lane 2, full-length ABCR labeled at 37° C.; lane 3, full-length ABCR labeled at 37° C. in the presence of 50 μM all-trans retinal; lane 4, co-expressed N and C halves labeled at 0° C.; lane 5, co-expressed N and C halves labeled at 37° C.; lane 6, co-expressed N and C halves labeled at 37° C. in the presence of 50 μM all-trans retinal.\n8-Azido-ATP Trapping—Membranes were incubated with 5 μM 8-azido-[α-^32P]ATP in 50 μl of labeling buffer with or without 800 μM sodium orthovanadate for 10 min at 37° C. All-trans retinal and 50 μM DTT were added where indicated. Binding was stopped by the addition of ice-cold 20 mM Tris-HCl, pH 7.4, the membranes were collected by centrifugation and washed one more time. Samples exposed to orthovanadate were washed in the presence of 800 μM orthovanadate. […]"}, "full-length ABCR": {"molecular_target": "full-length ABCR (Homo sapiens, UniProt P78363)", "sequence (P78363 whole entry)": "as above", "experiment": "Retinal-stimulated ATPase activity of purified protein reconstituted in lipid vesicles", "assay_type": "biochemical", "set-up": "Membranes from transfected cells expressing either full-length ABCR (lanes 1 & 2) or co-expressing the N and C halves; expressed in transfected cells; host or cells: transfected cells (COS-1 or EBNA293)", "conditions": "expressed in COS-1 cells, purified on Rim 3F4 column, 50 μM [α32P]ATP", "procedure": "Membranes (from two 10 cm dishes) were solubilized in 0.5 ml of 1% Triton-X100 in Buffer A (140 mM NaCl, 20 mM Tris-HCl, pH 7.4) for 20 min on ice. For ATPase assays, the membrane preparation step was omitted and the cell suspension was solubilized directly in Buffer B (10 mg/ml soybean phospholipids, 10% glycerol, 1 mM dithiothreitol, 100 mM NaCl, 3 mM MgCl2, 50 mM NaHEPES, pH 7.4) containing 18 mM CHAPS. The supernatant after a 10 min centrifugation at 40,000 rpm (TLA100.4 rotor) was mixed with 50 μl Rim3F4 Sepharose 2B for 1 h at 4° C. The beads were washed 6 times in Buffer A containing 0.2% Triton X-100 or Buffer B containing 10 mM CHAPS and eluted with 4% SDS (for electrophoresis) or 0.2 mg/ml Rim3F4 peptide (for reconstitution and determination of ATPase activity). […]\nATPase activity was measured as described previously (Ahn, J., Wong, J. T., and Molday, R. S. (2000) J Biol Chem 275(27), 20399-405) using 50 μM [α^32P]ATP and thin layer chromatography. The all-trans retinal concentration was determined spectrophotometrically (λ383 nm=42.88 mM^−1 cm^−1). […]\nATPase Activity of Expressed N and C Halves—The basal and retinal activated ATPase activity of full-length ABCR and the N and C halves individually or co-expressed in COS-1 cells was determined after immunoaffinity purification and reconstitution into lipid vesicles. […]"}}, "data": [{"smiles": "CC1=C(/C=C/C(C)=C/C=C/C(C)=C/C=O)C(C)(C)CCC1", "note": "[all-trans retinal]", "values": [{"measurement": "effect on 8-azido ATP/ADP trapping", "setting": "ABCR", "value": "not dependent on sodium orthovanadate or influenced"}, {"measurement": "stimulation of ATPase activity", "setting": "full-length ABCR", "value": "1-2 fold"}]}]}
